Results published in the NIST ThermoML archive (doi:10.1021/acs.jced.8b00854).

Assays:
[1] = refractive index (Na D-line) (dimensionless); xn = mol fraction of the nth substance listed; conditions: 100 kPa, Liquid, Standard Abbe refractometry
[2] = xn = mol fraction of the nth substance listed; conditions: 100 kPa, Liquid, Vibrating tube method

CCCCCCn1cc[n+](C)c1.F[B-](F)(F)F [1-hexyl-3-methylimidazolium tetrafluoroborate] + O
Conditions	mass density, [2] [kg/m3]	refractive index, [1]
293.15 K, x1 = 0.3006	1117.21	1.415
293.15 K, x1 = 0.4005	1125.26	1.418
293.15 K, x1 = 0.4999	1132.22	1.4195
293.15 K, x1 = 0.6008	1136.97	1.422
293.15 K, x1 = 0.7004	1140.58	1.4245
293.15 K, x1 = 0.7996	1143.29	1.425
293.15 K, x1 = 0.8997	1145.34	1.427
303.15 K, x1 = 0.3006	1109.91	1.414
303.15 K, x1 = 0.4005	1117.8	1.415
303.15 K, x1 = 0.4999	1125.06	1.417
303.15 K, x1 = 0.6008	1129.88	1.42
303.15 K, x1 = 0.7004	1133.55	1.422
303.15 K, x1 = 0.7996	1136.29	1.4235
303.15 K, x1 = 0.8997	1138.36	1.425
313.15 K, x1 = 0.3006	1102.56	1.409
313.15 K, x1 = 0.4005	1110.53	1.412
313.15 K, x1 = 0.4999	1117.91	1.4165
313.15 K, x1 = 0.6008	1122.81	1.419
313.15 K, x1 = 0.7004	1126.54	1.421
313.15 K, x1 = 0.7996	1129.34	1.4215
313.15 K, x1 = 0.8997	1131.42	1.423
323.15 K, x1 = 0.3006	1095.15	1.408
323.15 K, x1 = 0.4005	1103.23	1.4115
323.15 K, x1 = 0.4999	1110.76	1.415
323.15 K, x1 = 0.6008	1115.77	1.417
323.15 K, x1 = 0.7004	1119.58	1.419
323.15 K, x1 = 0.7996	1122.43	1.42
323.15 K, x1 = 0.8997	1124.55	1.421
333.15 K, x1 = 0.3006	1087.71	1.4075
333.15 K, x1 = 0.4005	1095.9	1.4115
333.15 K, x1 = 0.4999	1103.62	1.415
333.15 K, x1 = 0.6008	1108.78	1.4155
333.15 K, x1 = 0.7004	1112.66	1.417
333.15 K, x1 = 0.7996	1115.58	1.418
333.15 K, x1 = 0.8997	1117.73	1.419
343.15 K, x1 = 0.3006	1080.23	1.4075
343.15 K, x1 = 0.4005	1088.51	1.4095
343.15 K, x1 = 0.4999	1096.51	1.4125
343.15 K, x1 = 0.6008	1101.81	1.414
343.15 K, x1 = 0.7004	1105.77	1.4145
343.15 K, x1 = 0.7996	1108.76	1.416
343.15 K, x1 = 0.8997	1110.94	1.4165

CCCCCCCC[n+]1ccn(C)c1.F[B-](F)(F)F [1-methyl-3-octylimidazolium tetrafluoroborate] + O
Conditions	mass density, [2] [kg/m3]	refractive index, [1]
293.15 K, x1 = 0.3005	1084.34	1.4165
293.15 K, x1 = 0.4006	1089.21	1.4205
293.15 K, x1 = 0.5002	1094.12	1.424
293.15 K, x1 = 0.6001	1098.16	1.4265
293.15 K, x1 = 0.7006	1100.51	1.4285
293.15 K, x1 = 0.8004	1103.28	1.4305
293.15 K, x1 = 0.9015	1104.81	1.4315
303.15 K, x1 = 0.3005	1076.96	1.414
303.15 K, x1 = 0.4006	1082.09	1.419
303.15 K, x1 = 0.5002	1087.07	1.422
303.15 K, x1 = 0.6001	1091.18	1.425
303.15 K, x1 = 0.7006	1093.59	1.4265
303.15 K, x1 = 0.8004	1096.42	1.428
303.15 K, x1 = 0.9015	1098.01	1.4295
313.15 K, x1 = 0.3005	1069.66	1.413
313.15 K, x1 = 0.4006	1074.86	1.4165
313.15 K, x1 = 0.5002	1080	1.4205
313.15 K, x1 = 0.6001	1084.21	1.423
313.15 K, x1 = 0.7006	1086.68	1.4245
313.15 K, x1 = 0.8004	1089.58	1.4265
313.15 K, x1 = 0.9015	1091.22	1.427
323.15 K, x1 = 0.3005	1061.92	1.4125
323.15 K, x1 = 0.4006	1067.52	1.416
323.15 K, x1 = 0.5002	1072.9	1.419
323.15 K, x1 = 0.6001	1077.21	1.422
323.15 K, x1 = 0.7006	1079.77	1.423
323.15 K, x1 = 0.8004	1082.8	1.424
323.15 K, x1 = 0.9015	1084.48	1.4255
333.15 K, x1 = 0.3005	–	1.412
333.15 K, x1 = 0.4006	–	1.415
333.15 K, x1 = 0.5002	–	1.4185
333.15 K, x1 = 0.6001	–	1.4195
333.15 K, x1 = 0.7006	–	1.421
333.15 K, x1 = 0.8004	–	1.4225
333.15 K, x1 = 0.9015	–	1.4235
343.15 K, x1 = 0.3005	1041.36	1.412
343.15 K, x1 = 0.4006	1049.84	1.414
343.15 K, x1 = 0.5002	1057.37	1.417
343.15 K, x1 = 0.6001	1062.23	1.419
343.15 K, x1 = 0.7006	1065.07	1.419
343.15 K, x1 = 0.8004	1069.34	1.4205
343.15 K, x1 = 0.9015	1070.96	1.4215
